These results are taken from publication PMC12969314 (European journal of medicinal chemistry, 2022).

Data set [1] concerns the target T1, D4 receptor (Homo sapiens, UniProt P21917).
T1 sequence (P21917 1-419): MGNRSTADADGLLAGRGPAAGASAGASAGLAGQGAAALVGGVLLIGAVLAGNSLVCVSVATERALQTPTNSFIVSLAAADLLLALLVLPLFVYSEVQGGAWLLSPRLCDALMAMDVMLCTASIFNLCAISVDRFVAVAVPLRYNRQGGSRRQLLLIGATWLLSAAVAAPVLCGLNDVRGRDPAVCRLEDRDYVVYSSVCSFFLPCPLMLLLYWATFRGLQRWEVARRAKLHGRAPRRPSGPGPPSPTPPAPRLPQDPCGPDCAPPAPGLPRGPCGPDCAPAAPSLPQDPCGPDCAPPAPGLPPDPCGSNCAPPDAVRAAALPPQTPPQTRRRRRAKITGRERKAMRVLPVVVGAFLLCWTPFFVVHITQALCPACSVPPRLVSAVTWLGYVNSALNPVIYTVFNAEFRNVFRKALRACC
The class given is binding. Particulars: for selectivity against the dopamine receptor family: σ1 over D1-5.

Data set [2] is described as follows: Human liver microsomal intrinsic clearance. Type of data set: in vitro ADME. As to conditions: for CLint scaled / Predicted hepatic clearance hCLHEP: human; for CLint scaled: liver microsomes, Intrinsic clearance hCLINT; for Predicted hepatic clearance hCLHEP: well-stirred organ CL model, binding terms excluded.
Data set [3] is described as follows: Mouse liver microsomal intrinsic clearance. The class given is in vitro ADME. Particulars: for CLint scaled: liver microsomes; for Predicted hepatic clearance mCLHEP: well-stirred organ CL model, binding terms excluded.
Data set [4] has as its target σ2 receptor (Homo sapiens, UniProt Q5BJF2). The experiment in a line: σ2 receptor radioligand binding, [3H]DTG, HEK293 membranes. Particulars: ratio, σ1 over σ2.
Data set [5] in a line: Mouse plasma protein binding, equilibrium dialysis. Type of data set: in vitro ADME.
The target of data set [6] is DAT (Homo sapiens, UniProt Q01959). Nature of the data set: PDSP panel binding, DAT. As to conditions: for selectivity versus DAT: σ1 over DAT.
Chain of DAT (Q01959 whole entry, species assumed): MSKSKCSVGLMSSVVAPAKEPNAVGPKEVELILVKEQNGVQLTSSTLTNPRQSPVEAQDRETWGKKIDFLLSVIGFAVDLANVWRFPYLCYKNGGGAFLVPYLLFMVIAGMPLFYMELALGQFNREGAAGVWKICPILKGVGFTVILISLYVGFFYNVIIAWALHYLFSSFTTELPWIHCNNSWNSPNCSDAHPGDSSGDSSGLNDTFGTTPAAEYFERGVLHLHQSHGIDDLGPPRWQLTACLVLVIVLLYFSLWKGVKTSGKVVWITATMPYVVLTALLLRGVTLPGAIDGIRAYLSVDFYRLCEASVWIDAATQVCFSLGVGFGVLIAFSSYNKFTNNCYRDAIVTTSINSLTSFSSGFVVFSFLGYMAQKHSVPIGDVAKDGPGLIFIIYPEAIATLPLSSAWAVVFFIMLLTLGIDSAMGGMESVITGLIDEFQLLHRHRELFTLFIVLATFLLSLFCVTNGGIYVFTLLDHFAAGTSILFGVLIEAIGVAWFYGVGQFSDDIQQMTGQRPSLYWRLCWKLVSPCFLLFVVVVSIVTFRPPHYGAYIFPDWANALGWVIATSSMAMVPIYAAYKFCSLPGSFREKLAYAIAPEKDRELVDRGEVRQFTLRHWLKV

Chain of σ2 receptor (Q5BJF2 whole entry, species assumed): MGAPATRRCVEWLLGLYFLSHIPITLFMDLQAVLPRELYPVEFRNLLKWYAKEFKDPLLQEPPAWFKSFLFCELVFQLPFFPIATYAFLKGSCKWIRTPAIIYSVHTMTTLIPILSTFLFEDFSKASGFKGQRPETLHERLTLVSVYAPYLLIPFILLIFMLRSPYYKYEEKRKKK

In the case of `c1ccc(OC[C@@H]2CN(Cc3ccc4[nH]ccc4c3)CCO2)cc1` [Compound 4], the “selectivity for D4 versus σ1” value in data set [1] (D4 over σ1) is ~ 13 fold.

With `Cn1cnc2cc(CN3CCC(OCc4ccc(Cl)c(F)c4)CC3)ccc21` [Compound 11b, 5-((4-((4-chloro-3-fluorobenzyl)oxy)piperidin-1-yl)methyl)-1-methyl-1H-benzo[d]imidazole], the CLint scaled in data set [2] (human liver microsomes) and in data set [3] was less than 20 mL/min/kg in each case. Moreover, the “Predicted hepatic clearance hCLHEP” value in data set [2] is listed as less than 10 mL/min/kg. Also, the “Predicted hepatic clearance mCLHEP” value in data set [3] is less than 16 mL/min/kg.

As to `Fc1cc(COC2CCN(Cc3ccc4[nH]ncc4c3)CC2)ccc1Cl` [Compound 12b, 5-((4-((4-chloro-3-fluorobenzyl)oxy)piperidin-1-yl)methyl)-1H-indazole], in data set [2] (human liver microsomes), the “Intrinsic clearance hCLINT” value is 26.8 mL/min/kg and the intrinsic clearance (CLint scaled) is less than 30 mL/min/kg. The “Predicted hepatic clearance hCLHEP” value in data set [2] was 11.5 mL/min/kg. In addition, in data set [3], the intrinsic clearance (CLint scaled) worked out at 72 mL/min/kg and the “Predicted hepatic clearance mCLHEP” value is 40.0 mL/min/kg.

Take `Cn1ncc2cc(CN3CCC(OCc4ccc(F)c(F)c4)CC3)ccc21` [Compound 13a, 5-((4-((3,4-difluorobenzyl)oxy)piperidin-1-yl)methyl)-1-methyl-1H-indazole]: the “Predicted hepatic clearance hCLHEP” value in data set [2] is listed as 12.5 mL/min/kg. In addition, the “Predicted hepatic clearance mCLHEP” value in data set [3] is 48.2 mL/min/kg.

For the compound `Cn1ncc2cc(CN3CCC(OCc4ccc(Cl)c(F)c4)CC3)ccc21` [Compound 13b, 5-((4-((4-chloro-3-fluorobenzyl)oxy)piperidin-1-yl)methyl)-1-methyl-1H-indazole], in data set [2], the “Predicted hepatic clearance hCLHEP” value is 13.7 mL/min/kg. In addition, the “Predicted hepatic clearance mCLHEP” value in data set [3] is given as 43.8 mL/min/kg.

With `Cn1ncc2cc(CN3CCC(OCc4cccc(C(F)(F)F)c4)CC3)ccc21` [Compound 13c, 1-Methyl-5-((4-((3-(trifluoromethyl)benzyl)oxy)piperidin-1-yl)methyl)-1H-indazole], the “Predicted hepatic clearance hCLHEP” value in data set [2] is given as 15.3 mL/min/kg. Also, in data set [3], the “Predicted hepatic clearance mCLHEP” value is 43.8 mL/min/kg.

The compound `Cc1ccccc1CO[C@H]1CCCN(Cc2ccc3c(cnn3C)c2)C1` [Compound 13g, (S)-1-methyl-5-((3-((2-methylbenzyl)oxy)piperidin-1-yl)methyl)-1H-indazole] gave a CLint scaled in data set [2] (human liver microsomes) of 334 mL/min/kg. For the same compound, the “Predicted hepatic clearance hCLHEP” value in data set [2] is 19.0 mL/min/kg. Besides, in data set [3], the intrinsic clearance (CLint scaled) amounted to 545 mL/min/kg and the “Predicted hepatic clearance mCLHEP” value is given as 77.3 mL/min/kg.

As for `Fc1ccc(COC2CCN(Cc3cc4ccc(Cl)cc4[nH]3)CC2)cc1F` [Compound 14a, 6-chloro-2-((4-((3,4-difluorobenzyl)oxy)piperidin-1-yl)methyl)-1H-indole], the intrinsic clearance (CLint scaled) in data set [2] (human liver microsomes) is less than 30 mL/min/kg. In addition, the “Predicted hepatic clearance hCLHEP” value in data set [2] is on record as 10.8 mL/min/kg. The “Predicted hepatic clearance mCLHEP” value in data set [3] is 43.3 mL/min/kg.

Regarding `Cc1nc(CN2CCC(OCc3ccc(Cl)c(F)c3)CC2)c2ccccn12` [Compound 16b, 1-((4-((4-chloro-3-fluorobenzyl)oxy)piperidin-1-yl)methyl)-3-methylimidazo[1,5-a]pyridine], the CLint scaled amounted to 130 mL/min/kg in data set [2] (human liver microsomes) and 199 mL/min/kg in data set [3]. Further, the “Predicted hepatic clearance hCLHEP” value in data set [2] is reported as 17.4 mL/min/kg. The “Predicted hepatic clearance mCLHEP” value in data set [3] is on record as 62.0 mL/min/kg.

`Fc1ccc(COC2CCN(Cc3cn4ccccc4n3)CC2)cc1F` [Compound 17a, 2-((4-((3,4-difluorobenzyl)oxy)piperidin-1-yl)methyl)imidazo[1,2-a]pyridine]: the “Predicted hepatic clearance hCLHEP” value in data set [2] is less than 10 mL/min/kg. For the same compound, the “Predicted hepatic clearance mCLHEP” value in data set [3] was 57.4 mL/min/kg.

Consider `Fc1cc(COC2CCN(Cc3cn4ccccc4n3)CC2)ccc1Cl` [Compound 17b, 2-((4-((4-chloro-3-fluorobenzyl)oxy)piperidin-1-yl)methyl)imidazo[1,2-a]pyridine], for which the “Predicted hepatic clearance hCLHEP” value in data set [2] is 13.8 mL/min/kg. Further, in data set [3], the “Predicted hepatic clearance mCLHEP” value is 46.7 mL/min/kg.

In the case of `FC(F)(F)c1cccc(COC2CCN(Cc3cn4ccccc4n3)CC2)c1` [Compound 17c, 2-((4-((3-(trifluoromethyl)benzyl)oxy)piperidin-1-yl)methyl)imidazo[1,2-a]pyridine], the intrinsic clearance (CLint scaled) in data set [2] (human liver microsomes) was found to be 69.3 mL/min/kg. Also, the “Predicted hepatic clearance hCLHEP” value in data set [2] was 15.6 mL/min/kg. For the same compound, in data set [3], the intrinsic clearance (CLint scaled) stood at 150 mL/min/kg and the “Predicted hepatic clearance mCLHEP” value is recorded as 56.3 mL/min/kg.

With `c1cncc(COC2CCN(Cc3cn4ccccc4n3)CC2)c1` [Compound 17e, 2-((4-(pyridin-3-ylmethoxy)piperidin-1-yl)methyl)imidazo [1,2-a]pyridine], in data set [1], the Ki was 2.29 µM. In other words, the single-digit micromolar range.

As for `Fc1ccc(OC[C@@H]2CN(Cc3cn4ccccc4n3)CCO2)cc1F` [Compound 17k, (S)-2-((3,4-difluorophenoxy)methyl)-4-(imidazo[1,2-a]pyridin-2-ylmethyl)morpholine], in data set [2] (human liver microsomes), the intrinsic metabolic clearance (CLint scaled) came to 42.1 mL/min/kg. Also, in data set [2], the “Predicted hepatic clearance hCLHEP” value is 13.6 mL/min/kg. Moreover, in data set [3], the intrinsic metabolic clearance (CLint scaled) turned out to be 321 mL/min/kg and the “Predicted hepatic clearance mCLHEP” value is given as 70.3 mL/min/kg.

For the compound `Cc1c(Cl)cccc1NC(=O)CN1CCC(OCc2ccc(F)c(F)c2)CC1` [Compound 18a, N-(3-chloro-2-methylphenyl)-2-(4-((3,4-difluorobenzyl)oxy)piperidin-1-yl)acetamide], the “Predicted hepatic clearance hCLHEP” value in data set [2] is 17.6 mL/min/kg. For the same compound, in data set [3], the “Predicted hepatic clearance mCLHEP” value is on record as 68.6 mL/min/kg.

Take `Cc1cc(NC(=O)CN2CCC(OCc3ccc(F)c(F)c3)CC2)ccc1F` [Compound 18d, 2-(4-((3,4-difluorobenzyl)oxy)piperidin-1-yl)-N-(4-fluoro-3-methylphenyl)acetamide]: the “selectivity σ1:σ2” value in data set [4] is given as ~ 1.4. Further, the “Predicted hepatic clearance hCLHEP” value in data set [2] is 14.3 mL/min/kg. The “Predicted hepatic clearance mCLHEP” value in data set [3] is reported as 69.6 mL/min/kg. Also, the “Stability in mouse plasma (mPPB column)” value in data set [5] is “c”.

With `COc1ccc(CN2CCC[C@H](OCc3ccc(F)c(C)c3)C2)cc1F` [Compound 19a, (S)-3-((4-fluoro-3-methylbenzyl)oxy)-1-(3-fluoro-4-methoxybenzyl)piperidine], the CLint scaled in data set [2] (human liver microsomes) was 964 mL/min/kg. Also, the “Predicted hepatic clearance hCLHEP” value in data set [2] is 19.7 mL/min/kg. In addition, in data set [3], the intrinsic clearance (CLint scaled) is more than 2400 mL/min/kg and the “Predicted hepatic clearance mCLHEP” value was 86.8 mL/min/kg.

Consider `COc1ccc(CN2CCC[C@H](OCc3ccc(C)cc3)C2)cc1F` [Compound 19e, (S)-1-(3-fluoro-4-methoxybenzyl)-3-((4-methylbenzyl)oxy)piperidine], for which the figures for the CLint scaled in data set [2] (human liver microsomes) and in data set [3] were 1130 mL/min/kg and 1190 mL/min/kg, respectively. The “Predicted hepatic clearance hCLHEP” value in data set [2] is reported as 19.7 mL/min/kg. The “Predicted hepatic clearance mCLHEP” value in data set [3] is listed as 83.7 mL/min/kg.

On to `Cc1ccc(CO[C@H]2CCCN(Cc3ccc(C#N)cc3)C2)cc1` [Compound 19f, (S)-4-((3-((4-methylbenzyl)oxy)piperidin-1-yl)methyl) benzonitrile], for which, in data set [1], the “selectivity against the dopamine receptor family” value is reported as more than 74 fold. In data set [6], the “selectivity versus DAT” value worked out at 300. Further, the intrinsic metabolic clearance (CLint scaled) turned out to be 842 mL/min/kg in data set [2] (human liver microsomes) and 485 mL/min/kg in data set [3]. The “Predicted hepatic clearance hCLHEP” value in data set [2] is reported as 19.6 mL/min/kg. The “Predicted hepatic clearance mCLHEP” value in data set [3] is listed as 76.0 mL/min/kg.

As for `Cc1ccc(CO[C@H]2CCCN(Cc3cccc(F)c3)C2)cc1` [Compound 19g, (S)-1-(3-fluorobenzyl)-3-((4-methylbenzyl)oxy)piperidine], in data set [1], the Ki was more than 10 µM and the “selectivity against the dopamine receptor family” value was more than 74 fold. In addition, the “selectivity σ1:σ2” value in data set [4] worked out at 31. Besides, in data set [6], the inhibition constant (Ki) was found to be 8.81 µM and the “selectivity versus DAT” value worked out at 473. The same compound gave a CLint scaled in data set [2] (human liver microsomes) of 1400 mL/min/kg. In addition, in data set [2], the “Predicted hepatic clearance hCLHEP” value was 19.8 mL/min/kg. For the same compound, in data set [3], the CLint scaled is more than 2400 mL/min/kg and the “Predicted hepatic clearance mCLHEP” value is listed as 86.8 mL/min/kg.

Take `Cc1c(Cl)cccc1NC(=O)CN1CCC2(CCCN2Cc2ccc(F)c(F)c2)CC1` [Compound 24a, N-(3-chloro-2-methylphenyl)-2-(1-(3,4-difluorobenzyl)-1,8-diazaspiro[4.5]decan-8-yl)acetamide]: the Ki in data set [1] was more than 10 µM.

In turn, `Cc1cc(NC(=O)CN2CCC3(CCCN3Cc3ccc(F)c(F)c3)C2)ccc1F` (stereo not drawn) [Compound 24e, 2-(1-(3,4-difluorobenzyl)-1,7-diazaspiro[4.4]nonan-7-yl)-N-(4-fluoro-3-methylphenyl)acetamide] displayed a Ki in data set [1] of more than 10 µM.

In turn, `Cc1cc(NC(=O)CN2CCC3(CCCN(Cc4ccc(F)c(F)c4)C3)C2)ccc1F` (stereo not drawn) [Compound 24f, 2-(7-(3,4-difluorobenzyl)-2,7-diazaspiro[4.5]decan-2-yl)-N-(4-fluoro-3-methylphenyl)acetamide] showed a Ki in data set [1] of more than 10 µM. For the same compound, the intrinsic metabolic clearance (CLint scaled) in data set [2] (human liver microsomes) amounted to 602 mL/min/kg. For the same compound, the “Predicted hepatic clearance hCLHEP” value in data set [2] was 19.5 mL/min/kg. In data set [3], the CLint scaled turned out to be 855 mL/min/kg and the “Predicted hepatic clearance mCLHEP” value is 81.5 mL/min/kg. Further, in data set [5], the “Stability in mouse plasma (mPPB column)” value is “c”.

Take `Fc1ccc(CN2CCCC3(CCN(Cc4cc5ccc(Cl)cc5[nH]4)C3)C2)cc1F` (stereo not drawn) [Compound 25c, 2-((6-chloro-1H-indol-2-yl)methyl)-7-(3,4-difluorobenzyl)-2,7-diazaspiro[4.5]decane]: in data set [1], the Ki was more than 10 µM.
